1 compound from US10093627B2, “Tetrahydroquinoline derivatives and their use as Epac inhibitors” (Institut National de la Sante et de la Recherche Medicale …, priority 2012, dated 2018) can be followed below.

In test [1] the test system is Iso-induced NFAT-Luc transcriptional activation. Description: NFAT-Luc transcriptional activation (Firefly luciferase assay) in neonatal cardiomyocytes. Particulars: CE3F4 20 μM, 30 min pretreatment; Iso 10 μM, 8 h; FIG. 4B. Type of test: cell-based, rat. How it is done: ANF and NFAT promoters were fused to the Firefly luciferase gene (ANF-Luc) (NFAT-Luc) to detect ANF and NFAT by Firefly Luciferase assay (see Materiel and Methods).
Rat neonatal cardiomyocytes were cotransfected with ANF-Luc and Epac1 or empty vector pcDNA3 as control. One day after transfection, cells were pretreated or not with CE3F4 (20 μM) for 30 min and stimulated or not with Iso (10 μM) for 8 h. Cells were then assayed for Luciferase activity. B) Iso-induced NFAT-Luc Transcriptional Activation is Blocked by CE3F4: Neonatal cardiomyocytes were transfected with NFAT-Luc. One day later cells were pretreated or not with CE3F4 (20 μM) for 30 min and stimulated or not with Iso (10 μM) for 8 h. The day after, cells were assayed for Luciferase activity.
Results were normalized to control for each experiment, and were expressed as means±S.E.M of at 4 (FIG. 4A) or 5 (FIG. 4B) independent experiments performed in triplicates.
The rat ANF promoter fused to the Firefly luciferase reporter gene (ANF-Luc) by Dr K. Knowlton, Epac and Rap1 plasmid construct (Epac1^WT) by Drs J. L. Bos and J. de Gunzburg, respectively. The Firefly luciferase reporter plasmid driven by four NFAT consensus binding sites (NFAT-Luc) was purchased from Stratagene. […]
Cells were lysed, and luminescence was detected using the Luciferase Assay System (Promega) according to the manufacturer's instructions with Tecan Infinite.

Another test concerns the target T1, Epac2(B) (Homo sapiens, UniProt Q8WZA2).
T1 construct: Human Epac2(B) (amino acids 283-1011) lacks the first 283 amino acids of Epac2; made in house; host or cells: Escherichia coli Rosetta 2(DE3)
T1 sequence (Q8WZA2 283-1011): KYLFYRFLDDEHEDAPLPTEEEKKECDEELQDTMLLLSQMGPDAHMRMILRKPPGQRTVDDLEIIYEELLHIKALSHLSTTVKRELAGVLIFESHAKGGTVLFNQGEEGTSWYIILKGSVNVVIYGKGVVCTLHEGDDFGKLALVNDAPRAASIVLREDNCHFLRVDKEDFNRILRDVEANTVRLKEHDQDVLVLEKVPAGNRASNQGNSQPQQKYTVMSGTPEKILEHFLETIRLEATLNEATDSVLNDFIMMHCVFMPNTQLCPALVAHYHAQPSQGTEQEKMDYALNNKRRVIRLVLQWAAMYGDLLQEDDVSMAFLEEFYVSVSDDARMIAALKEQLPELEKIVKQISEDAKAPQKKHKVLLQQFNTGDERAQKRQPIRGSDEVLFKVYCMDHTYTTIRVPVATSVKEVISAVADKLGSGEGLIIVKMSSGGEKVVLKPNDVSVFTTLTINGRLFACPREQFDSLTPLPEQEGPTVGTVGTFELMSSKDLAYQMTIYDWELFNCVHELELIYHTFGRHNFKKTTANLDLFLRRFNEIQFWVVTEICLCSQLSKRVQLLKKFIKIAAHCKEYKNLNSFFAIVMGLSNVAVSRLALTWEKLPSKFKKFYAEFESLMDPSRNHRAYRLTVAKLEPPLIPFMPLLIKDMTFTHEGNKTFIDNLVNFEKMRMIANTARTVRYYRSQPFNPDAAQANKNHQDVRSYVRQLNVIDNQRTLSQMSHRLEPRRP
Description: In vitro GEF activity (initial velocity of GDP exchange on Rap1A) of Epac2(B). Type of test: biochemical. The text has this: Human Epac2(AB) (amino acids 43-1011) carries both the CNB-A and the CNB-B domains. Human Epac2(B) (amino acids 283-1011) lacks the first 283 amino acids of Epac2. It is therefore deleted of its CNB-A and DEP domains, but retains the CNB-B domain and the full catalytic region. Epac2(AB) was obtained by HindIII/NotI restriction and Epac2(B) was obtained by Ssp1/Not1 restriction of a human Epac2A cDNA (a gift from Ann M Graybiel, Department of Brain and Cognitive Sciences, MIT, Cambridge). Both cDNA fragments were inserted into pET41a (Novagen), expressed in Escherichia coli Rosetta 2(DE3) (Novagen), and the GST-tagged fusion proteins were purified by nickel-nitrilotriacetic acid beads (Qiagen), as described in D. Courilleau, et al., Identification of a tetrahydroquinoline analog as a pharmacological inhibitor of the cAMP-binding protein Epac, J. Biol. Chem. 287 (2012) 44192-44202).
In vitro GDP exchange catalyzed by Epac was measured using purified recombinant Epac isoforms and Rap1A loaded with Bodipy-GDP, as described in D. Courilleau, et al (above mentioned). The GEF activity of Epac proteins was initiated by injection of the agonist. Stock solutions of CE3F4 and its analogs (12 mM in 100% DMSO) were kept at −20° C. and were diluted in assay buffer (0.67% final DMSO concentration) just before use for GDP exchange assays. The release of Bodipy-GDP was measured in real time as the decay of fluorescence. A single exponential was fit to the time-course data using the Graphpad Prism program. The initial velocity (Vi) of GDP exchange on Rap1 was calculated as described in D. Courilleau et al.).
Data are expressed as mean±S.D. Differences in quantitative variables were examined by unpaired one- or two-tailed Student's t test. EC50 and IC50 values were computed according to a four-parameters dose-response model and compared on the basis of the extra sum-of square F test, using Graphpad Prism. Two-tailed Wilcoxon matched-pair signed rank tests were performed using GraphPad Prism.

Consider `CC1CCc2c(cc(Br)c(F)c2Br)N1C=O` (racemic) [CE3F4], for which the “Effect on Iso-induced NFAT transcriptional activity” value in test [1] was “prevented”. Also, the “Inhibitory effect on GEF activity of Epac2(B), compared with Epac2(AB)” value at Epac2(B) (50 μM racemic CE3F4, agonist 50 μM 007 or 300 μM cAMP, FIG. 6A) is on record as “no significant difference”. For the same compound, the 50% inhibitory concentration (IC50) at Epac2(B) (Epac2(B) activated by 300 μM cAMP) came out at 66 µM. Also, the “Antagonism of cAMP-activated Epac2(B) GEF activity” value at Epac2(B) (compound 30 μM, 300 μM cAMP, FIG. 6C) is “stronger antagonist”.

What is called IC50 is the concentration at which inhibition is half-maximal.
